In patent US20210230203A1, “Amphiphilic Kanamycin Compositions and Methods” (priority 2020, published 2021):
In brackets after ≈: the same amount, converted by molar mass.

Tests used:
Type in all cases: cell-based
[1] = test system: S. aureus (ATCC 25923); experiment: MIC against bacterial strains
[2] = test system: Candida albicans MYA2876; experiment: MIC against fungal strains (Table 1); settings: Candida albicans MYA2876
[3] = test system: Candida albicans 64124; experiment: MIC against fungal strains (Table 1)
[4] = test system: E. coli (25922); experiment: MIC against bacterial strains
[5] = test system: Rhodotorula pilimanae; experiment: MIC against fungal strains (Table 1)
[6] = test system: Cryptococcus neoformans H99; experiment: MIC against fungal strains (Table 1); settings: Cryptococcus neoformans H99
[7] = test system: Fusarium graminearum B4-5A; experiment: microbe, parasite or virus in culture; settings: Fusarium graminearum B4-5A
[8] = test system: S. aureus (ATCC 43300) MRSA
[9] = test system: S. aureus (ATCC 33591) MRSA

Compound | Minimum inhibitory concentration [1] [µg/mL] | Minimum inhibitory concentration [2] [µg/mL] | Minimum inhibitory concentration [3] [µg/mL] | Minimum inhibitory concentration [4] [µg/mL] | Minimum inhibitory concentration [5] [µg/mL] | Minimum inhibitory concentration [6] [µg/mL] | Minimum inhibitory concentration [7] [µg/mL] | Minimum inhibitory concentration [8] [µg/mL] | Minimum inhibitory concentration [9] [µg/mL]
N[C@@H]1[C@@H](O)[C@@H](O[C@@H]2[C@@H](O)[C@H](O[C@H]3O[C@H](CNC(=O)c4cc(-c5ccccc5)nc5ccccc45)[C@@H](O)[C@H](O)[C@H]3O)[C@@H](N)C[C@H]2N)O[C@H](CO)[C@H]1O [KI08] | >256 | >256 | >256 | >256 | 256 (≈ 358 µM) | 128 (≈ 179 µM) | >256 |  | 
CCCCCCCCCCCC(=O)NC[C@H]1O[C@H](O[C@H]2[C@H](O)[C@@H](O[C@H]3O[C@H](CO)[C@@H](O)[C@H](N)[C@H]3O)[C@H](N)C[C@@H]2N)[C@H](O)[C@@H](O)[C@@H]1O [KI04] | 32 (≈ 48 µM) | 32 (≈ 48 µM) | 32 (≈ 48 µM) | 32 (≈ 48 µM) | 16 (≈ 24 µM) | 8 (≈ 12 µM) | 16 (≈ 24 µM) | 128 (≈ 192 µM) | 128 (≈ 192 µM)
CCCCCCCC(=O)NCC1O[C@H](OC2C(N)CC(N)C(OC3O[C@H](CO)C(O)C(N)[C@H]3O)[C@H]2O)C(O)C(O)[C@@H]1O (some centres unmarked) [KI02] | >256 | >256 | >256 | >256 | >256 | >256 | >256 |  | 
CCCCCCCCCCCCCC(=O)NCC1O[C@H](OC2C(N)CC(N)C(OC3O[C@H](CO)C(O)C(N)[C@H]3O)[C@H]2O)C(O)C(O)[C@@H]1O (some centres unmarked) [KI05] | 16 (≈ 23 µM) | 16 (≈ 23 µM) | 16 (≈ 23 µM) | 64 (≈ 92.1 µM) | 4 (≈ 5.76 µM) | 4 (≈ 5.76 µM) | 8 (≈ 11.5 µM) | 32 (≈ 46.1 µM) | 32 (≈ 46.1 µM)
